# Source: ChEMBL document CHEMBL5726062, “Substituted oxopyridine derivatives” (2019)
# Target: Coagulation factor XI (Homo sapiens, UniProt P03951)
# Experiment: Measurement of FXIa Inhibition: The factor XIa inhibition of the substances according to the invention is determined using a biochemical test system which utilizes the reaction of a peptidic factor XIa substrate to determine the enzymatic activity of human factor XIa. Here, factor XIa cleaves from the peptic factor XIa substrate the C-terminal aminomethylcoumarin (AMC), the fluorescence of which is measured. The determinations are carried out in microtitre plates.Test substances are dissolved in dimethyl sulphoxide and serially diluted in dimethyl sulphoxide (3000 μM to 0.0078 μM; resulting final concentrations in the test: 50 μM to 0.00013 μM). 1 μl of the diluted substance solutions is placed into each of the wells of white microtitre plates from Greiner (384 wells). 20 μl of assay buffer (50 mM of Tris/HCl pH 7.4; 100 mM of sodium chloride; 5 mM of calcium chloride; 0.1% of bovine serum albumin) and 20 μl of factor XIa from Kordia (0.45 nM in assay buffer) are then added successively. After […] of incubation, the enzyme reaction is started by addition of 20 μl of the factor XIa substrate Boc-Glu(OBzl)-Ala-Arg-AMC dissolved in assay buffer (10 μM in assay buffer) from Bachem, the mixture is incubated at room temperature (22° C.) for 30 min and fluorescence is then measured (excitation: 360 nm, emission: 460 nm). […]
# Chain of Coagulation factor XI (P03951 19-387 limits assumed): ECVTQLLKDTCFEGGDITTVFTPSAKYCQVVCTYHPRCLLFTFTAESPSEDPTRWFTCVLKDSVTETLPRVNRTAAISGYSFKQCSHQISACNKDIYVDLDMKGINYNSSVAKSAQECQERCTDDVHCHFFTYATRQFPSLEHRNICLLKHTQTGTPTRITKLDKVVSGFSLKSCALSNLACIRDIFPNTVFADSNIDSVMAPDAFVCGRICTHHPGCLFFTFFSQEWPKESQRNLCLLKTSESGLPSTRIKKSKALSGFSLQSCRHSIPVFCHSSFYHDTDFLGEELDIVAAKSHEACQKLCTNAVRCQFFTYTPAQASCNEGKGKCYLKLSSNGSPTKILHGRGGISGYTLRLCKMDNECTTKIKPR
# Chain of Coagulation factor XI (P03951 388-625 limits assumed): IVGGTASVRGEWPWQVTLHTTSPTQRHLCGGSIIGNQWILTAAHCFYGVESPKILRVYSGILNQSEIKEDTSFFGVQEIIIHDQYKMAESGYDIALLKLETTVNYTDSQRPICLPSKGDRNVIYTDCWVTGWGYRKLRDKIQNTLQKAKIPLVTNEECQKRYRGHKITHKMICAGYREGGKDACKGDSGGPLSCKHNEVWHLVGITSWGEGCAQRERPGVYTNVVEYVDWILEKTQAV
compound,measurement,value
CNC(=O)c1ccc(NC(=O)C(Cc2cnco2)n2cc(OC)c(-c3cc(Cl)ccc3C#N)cc2=O)cn1 (racemic),IC50,12 nM
